Data from PubChem BioAssay (NCI).
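Following 48 hours of exposure in 96-well plates, responses at five concentrations were used to interpolate endpoints linearly. GI50: concentration for 50% inhibition of growth. Definition used: TGI = concentration required for complete inhibition of growth.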

Assays:
Assay in all cases: NCI tumour cell line growth inhibition, 48 h
PC-3 prostate = system: PC-3 prostate
NCI-H522 lung = system: NCI-H522 lung
HT29 colon = system: HT29 colon
RXF 393 renal = system: RXF 393 renal
TK-10 renal = system: TK-10 renal
OVCAR-3 ovarian = system: OVCAR-3 ovarian
HCC-2998 colon = system: HCC-2998 colon
UACC-62 melanoma = system: UACC-62 melanoma
UO-31 renal = system: UO-31 renal
NCI-H226 lung = system: NCI-H226 lung
MDA-MB-468 breast = system: MDA-MB-468 breast
DU-145 prostate = system: DU-145 prostate
T-47D breast = system: T-47D breast
SK-MEL-5 melanoma = system: SK-MEL-5 melanoma
K-562 leukemia = system: K-562 leukemia
HS 578T breast = system: HS 578T breast
SW-620 colon = system: SW-620 colon
NCI/ADR-RES ovarian = system: NCI/ADR-RES ovarian
MCF7 breast = system: MCF7 breast
SF-295 CNS = system: SF-295 CNS
IGROV1 ovarian = system: IGROV1 ovarian
786-0 renal = system: 786-0 renal
COLO 205 colon = system: COLO 205 colon
NCI-H23 lung = system: NCI-H23 lung
SK-OV-3 ovarian = system: SK-OV-3 ovarian
OVCAR-4 ovarian = system: OVCAR-4 ovarian
HCT-116 colon = system: HCT-116 colon
HOP-92 NSCLC = system: HOP-92 NSCLC
HOP-62 NSCLC = system: HOP-62 NSCLC
SF-539 CNS = system: SF-539 CNS
SNB-75 CNS = system: SNB-75 CNS
SK-MEL-2 melanoma = system: SK-MEL-2 melanoma
BT-549 breast = system: BT-549 breast
HCT-15 colon = system: HCT-15 colon
OVCAR-5 ovarian = system: OVCAR-5 ovarian
SN12C renal = system: SN12C renal
MDA-MB-435 = system: MDA-MB-435
UACC-257 melanoma = system: UACC-257 melanoma
MDA-MB-231 breast = system: MDA-MB-231 breast
LOX IMVI melanoma = system: LOX IMVI melanoma
M14 melanoma = system: M14 melanoma
A498 renal = system: A498 renal
CAKI-1 renal = system: CAKI-1 renal
SF-268 CNS = system: SF-268 CNS
MALME-3M melanoma = system: MALME-3M melanoma
KM12 colon = system: KM12 colon
NCI-H460 lung = system: NCI-H460 lung
EKVX NSCLC = system: EKVX NSCLC
HL-60(TB) leukemia = system: HL-60(TB) leukemia
U251 CNS = system: U251 CNS
MOLT-4 leukemia = system: MOLT-4 leukemia
RPMI-8226 leukemia = system: RPMI-8226 leukemia
ACHN renal = system: ACHN renal
SR leukemia = system: SR leukemia
CCRF-CEM leukemia = system: CCRF-CEM leukemia
SNB-19 CNS = system: SNB-19 CNS
A549 NSCLC = system: A549 NSCLC
OVCAR-8 ovarian = system: OVCAR-8 ovarian
SK-MEL-28 melanoma = system: SK-MEL-28 melanoma

Cc1ccc(C2CC(c3ccc(NC(=O)Nc4ccccc4)cc3)=NN2c2ccc(S(N)(=O)=O)cc2)cc1 (stereo not drawn)
GI50 (PC-3 prostate): 2600 nM
TGI (PC-3 prostate): 12.8 µM
GI50 (NCI-H522 lung): 2840 nM
TGI (NCI-H522 lung): 15 µM
GI50 (HT29 colon): 2300 nM
TGI (HT29 colon): 7.45 µM
GI50 (RXF 393 renal): 13.1 µM
TGI (RXF 393 renal): 27.6 µM
GI50 (TK-10 renal): 9.93 µM
TGI (TK-10 renal): 22.2 µM
GI50 (OVCAR-3 ovarian): 3.97 µM
TGI (OVCAR-3 ovarian): 18.7 µM
GI50 (HCC-2998 colon): 2650 nM
TGI (HCC-2998 colon): 8.77 µM
GI50 (UACC-62 melanoma): 10.4 µM
TGI (UACC-62 melanoma): 22.6 µM
GI50 (UO-31 renal): 3.45 µM
TGI (UO-31 renal): 14.6 µM
GI50 (NCI-H226 lung): 10.9 µM
TGI (NCI-H226 lung): 24.9 µM
GI50 (MDA-MB-468 breast): 10.2 µM
TGI (MDA-MB-468 breast): 24 µM
GI50 (DU-145 prostate): 10.2 µM
TGI (DU-145 prostate): 23 µM
GI50 (T-47D breast): 3.37 µM
TGI (T-47D breast): 14.6 µM
GI50 (SK-MEL-5 melanoma): 15.5 µM
TGI (SK-MEL-5 melanoma): 29.5 µM
GI50 (K-562 leukemia): 3.94 µM
TGI (K-562 leukemia): > 100 µM
GI50 (HS 578T breast): 14.8 µM
TGI (HS 578T breast): 39.1 µM
GI50 (SW-620 colon): 5.53 µM
TGI (SW-620 colon): 22.3 µM
GI50 (NCI/ADR-RES ovarian): 2830 nM
TGI (NCI/ADR-RES ovarian): 11 µM
GI50 (MCF7 breast): 3.56 µM
TGI (MCF7 breast): 15.2 µM
GI50 (SF-295 CNS): 5.34 µM
TGI (SF-295 CNS): 18.8 µM
GI50 (IGROV1 ovarian): 6.9 µM
TGI (IGROV1 ovarian): 20.3 µM
GI50 (786-0 renal): 3.86 µM
TGI (786-0 renal): 15.7 µM
GI50 (COLO 205 colon): 4.22 µM
TGI (COLO 205 colon): 18.6 µM
GI50 (NCI-H23 lung): 3.57 µM
TGI (NCI-H23 lung): 14.3 µM
GI50 (SK-OV-3 ovarian): 12.9 µM
TGI (SK-OV-3 ovarian): 27.1 µM
GI50 (OVCAR-4 ovarian): 4.5 µM
TGI (OVCAR-4 ovarian): 17.2 µM
GI50 (HCT-116 colon): 2990 nM
TGI (HCT-116 colon): 13.5 µM
GI50 (HOP-92 NSCLC): 3.21 µM
TGI (HOP-92 NSCLC): 14.8 µM
GI50 (HOP-62 NSCLC): 13.3 µM
TGI (HOP-62 NSCLC): 28.7 µM
GI50 (SF-539 CNS): 12.7 µM
TGI (SF-539 CNS): 25.4 µM
GI50 (SNB-75 CNS): 10.7 µM
TGI (SNB-75 CNS): 24 µM
GI50 (SK-MEL-2 melanoma): 7.4 µM
TGI (SK-MEL-2 melanoma): 21.5 µM
GI50 (BT-549 breast): 7.84 µM
TGI (BT-549 breast): 20.9 µM
GI50 (HCT-15 colon): 4.35 µM
TGI (HCT-15 colon): 16.9 µM
GI50 (OVCAR-5 ovarian): 12.4 µM
TGI (OVCAR-5 ovarian): 25.2 µM
GI50 (SN12C renal): 3.92 µM
TGI (SN12C renal): 14.5 µM
GI50 (MDA-MB-435): 6.83 µM
TGI (MDA-MB-435): 21.3 µM
GI50 (UACC-257 melanoma): 8.48 µM
TGI (UACC-257 melanoma): 22 µM
GI50 (MDA-MB-231 breast): 12.3 µM
TGI (MDA-MB-231 breast): 25.3 µM
GI50 (LOX IMVI melanoma): 1760 nM
TGI (LOX IMVI melanoma): 3.23 µM
GI50 (M14 melanoma): 9.27 µM
TGI (M14 melanoma): 27.2 µM
GI50 (A498 renal): 9.06 µM
TGI (A498 renal): 21.3 µM
GI50 (CAKI-1 renal): 10.4 µM
TGI (CAKI-1 renal): 22.5 µM
GI50 (SF-268 CNS): 10.2 µM
TGI (SF-268 CNS): 24 µM
GI50 (MALME-3M melanoma): 7.88 µM
TGI (MALME-3M melanoma): 20.8 µM
GI50 (KM12 colon): 5.57 µM
TGI (KM12 colon): 22.1 µM
GI50 (NCI-H460 lung): 2990 nM
TGI (NCI-H460 lung): 12.5 µM
GI50 (EKVX NSCLC): 4.04 µM
TGI (EKVX NSCLC): 16.4 µM
GI50 (HL-60(TB) leukemia): 2130 nM
TGI (HL-60(TB) leukemia): 10.6 µM
GI50 (U251 CNS): 6.86 µM
TGI (U251 CNS): 20.3 µM
GI50 (MOLT-4 leukemia): 2980 nM
TGI (MOLT-4 leukemia): 14.1 µM
GI50 (RPMI-8226 leukemia): 3.8 µM
TGI (RPMI-8226 leukemia): 35.9 µM
GI50 (ACHN renal): 4.16 µM
TGI (ACHN renal): 14.9 µM
GI50 (SR leukemia): 4.28 µM
TGI (SR leukemia): 26.7 µM
GI50 (CCRF-CEM leukemia): 3.98 µM
TGI (CCRF-CEM leukemia): 22 µM
GI50 (SNB-19 CNS): 12.7 µM
TGI (SNB-19 CNS): 25.4 µM
GI50 (A549 NSCLC): 3.36 µM
TGI (A549 NSCLC): 14.7 µM
GI50 (OVCAR-8 ovarian): 5.58 µM
TGI (OVCAR-8 ovarian): 21.4 µM
GI50 (SK-MEL-28 melanoma): 10.5 µM
TGI (SK-MEL-28 melanoma): 22.5 µM
